The source of these data is US7473683B2, “Nonpolar thymidine analogs” (The Board of Trustees of the Leland Stanford Junior …, priority 2005, dated 2009).

Assay [1] relates to DNA Pol I (Klenow fragment, exo-). Briefly: steady-state kinetics of single nucleotide insertions, thymidine analogues in the template. The assay is classed as biochemical, E. coli. Also noted: efficiency: unit not given here. Particulars: for efficiency as analog of thymidine in a template strand (summary): Example 4, dATP insertion; for Km / Vmax / efficiency / Rel. efficiency: Example 4: incorporating dATP opposite template thymidine analog; for Rel. efficiency: T template = 1. The method, then:
(§1) In vitro steady-state kinetics. As polymerase substrates we used 28 mer/23 mer template-primer duplexes having the sequence (5′-ACT GXT CTCCCTATAGTGAGTCGTATTA [SEQ ID NO:1])·(5′-TAATACGACTCACTATAGGGAGA [SEQ ID NO:2]). Kinetics were measured at 37° C. in a buffer containing 10 mM Mg^2+. The primer was 5′ end-labeled and was extended by the polymerase in the presence of a single dNTP species over varied concentration and time. Products of single nucleotide insertions were resolved from unreacted primer by 20% denaturing gel electrophoresis, and were quantitated by autoradiography. Details of the kinetics experiments are given in the Supporting Data.
(§2) We chose DNA polymerase I (Klenow fragment, exonuclease-deficient) as an ideal candidate for initial study, as it is enzymatically well-characterized among replicative enzymes, and yet is relatively small and acts as a single subunit. We carried out kinetics studies of single nucleotide insertions in the steady state, using a gel electrophoresis-based assay.
(§3) Data for single nucleotide insertion kinetics in the steady-state. The enzyme was the Klenow fragment of DNA pol I from E. coli (exonuclease deficient). Methods are as described above.

For assay [2] the test system is unchanged. In words: steady-state kinetics of single nucleotide insertions, incoming nucleotide analogues (dNTP/dXTP). The format is biochemical, E. coli. The settings on record: for Km / Vmax: 37° C.; for Vmax: 10 mM MgCl2, pH 7.5, normalized to lowest enzyme concentration; for rel. efficiency: relative to insertion of dTTP opposite A. As to the method: as §1, §2, §3

Where [3] appears, read: dNTP inserted opposite template base A.
[4] abbreviates: dNTP inserted opposite template base C.
The mark [5] stands for this setting: dNTP inserted opposite template base G.
Where [6] appears, read: dNTP inserted opposite template base T.

Each structure is given as a SMILES string.

In general, Km refers to the substrate concentration at which the rate is half of its maximum. As for `Cc1cc([C@H]2C[C@@H](O)[C@@H](CO)O2)c(Cl)cc1Br` [2C4B], in assay [1], the “efficiency as analog of thymidine in a template strand (summary)” value (“efficiency as analog of thymidine” for short) is recorded as “probably as good”, the Km is 4.18 ± 0.47 µM, the Vmax was 30.4709 ± 0.8544 and the efficiency entry was “(7.38 ± 1.07) × 10^6”. The Rel. efficiency in assay [1] was 4.0 × 10^−1.
Take `Cc1cc([C@H]2C[C@@H](O)[C@@H](CO)O2)c(Cl)cc1Cl` [2C4C, 2,4-dichlorotoluene]: the “efficiency as analog of thymidine” value in assay [1] is on record as “most efficient analog overall”.
For the compound `Cc1cc([C@H]2C[C@@H](O)[C@@H](CO)O2)c(F)cc1Cl` [2F4C], in assay [1], the “efficiency as analog of thymidine” value is reported as “probably as good”, the Km was 7.51 ± 2.79 µM, the Vmax amounted to 49.7002 ± 1.5432 and the efficiency result is “(7.13 ± 2.13) × 10^6”. Further, the Rel. efficiency in assay [1] was 3.8 × 10^−1.
As for `Cc1cc([C@H]2C[C@@H](O)[C@@H](CO)O2)ccc1Cl` [2H4C], in assay [1], the Km stood at 31.5 ± 8.91 µM, the Vmax came out at 2.8214 ± 0.5396, the efficiency entry is listed as “(9.81 ± 1.58) × 10^4” and the Rel. efficiency is 5.3 × 10^−3.
Consider `Cc1cc([C@H]2C[C@@H](O)[C@@H](CO)O2)cc(Cl)c1Cl` [3,4-di-C], for which, in assay [1], the Km was determined as 55 ± 24 µM, the Vmax is given as 0.4291 ± 0.1095, the efficiency entry is “(8.30 ± 1.55) × 10^3” and the Rel. efficiency is 4.5 × 10^−4.
Taken in the same sequence, the figures for `Cc1cc(Cl)cc([C@H]2C[C@@H](O)[C@@H](CO)O2)c1` [3C] were 51.9 ± 1.9 µM, 0.4378 ± 0.1116, “(8.62 ± 0.85) × 10^3” and 4.6 × 10^−4.
With `Cc1cc(C2CC(O)C(COP(=O)(O)OP(=O)(O)OP(=O)(O)O)O2)c(Br)cc1Br` (stereo not drawn) [dBTP], the Km in assay [2] (setting [3]) amounted to 23 ± 6 µM; in assay [2] (setting [4]), 74 ± 22 µM; in assay [2] (setting [5]), 50 ± 10 µM; in assay [2] (setting [6]), 38 ± 21 µM. Also, the Vmax in assay [2] (setting [3]) is 13 ± 2 % · min^−1; in assay [2] (setting [4]), 0.016 ± 0.001 % · min^−1; in assay [2] (setting [5]) it was 0.0094 ± 0.0004 % · min^−1; in assay [2] (setting [6]) it was 0.8 ± 0.16 % · min^−1. Besides, the rel. efficiency is 3.6 × 10^−2 in assay [2] (setting [3]), 1.4 × 10^−5 in assay [2] (setting [4]), 1.2 × 10^−5 in assay [2] (setting [5]) and 1.3 × 10^−3 in assay [2] (setting [6]).
Turning to `Cc1cc(C2CC(O)C(COP(=O)(O)OP(=O)(O)OP(=O)(O)O)O2)c(F)cc1F` (stereo not drawn) [dFTP, reference compound], the Km in assay [2] (setting [3]) worked out at 29 ± 10 µM; in assay [2] (setting [4]), 200 ± 110 µM; in assay [2] (setting [5]), 300 ± 120 µM; in assay [2] (setting [6]) it was 37 ± 15 µM. Also, the Vmax in assay [2] (setting [3]) turned out to be 2.9 ± 0.1 % · min^−1; in assay [2] (setting [4]), 0.012 ± 0.004 % · min^−1; in assay [2] (setting [5]) it was 0.0067 ± 0.0017 % · min^−1; in assay [2] (setting [6]), 0.0066 ± 0.0010 % · min^−1. The rel. efficiency in assay [2] (setting [3]) is given as 6.3 × 10^−3; in assay [2] (setting [4]) it was 3.8 × 10^−6; in assay [2] (setting [5]) it was 1.4 × 10^−6; in assay [2] (setting [6]) it was 1.1 × 10^−5.
As to `Cc1cccc(C2CC(O)C(COP(=O)(O)OP(=O)(O)OP(=O)(O)O)O2)c1` (stereo not drawn) [dHTP], the Km in assay [2] (setting [3]) is 110 ± 20 µM; in assay [2] (setting [4]) it was 310 ± 170 µM; in assay [2] (setting [5]) it was 200 ± 90 µM; in assay [2] (setting [6]), 59 ± 27 µM. The Vmax in assay [2] (setting [3]) is recorded as 0.11 ± 0.20 % · min^−1; in assay [2] (setting [4]) it was 0.0067 ± 0.0023 % · min^−1; in assay [2] (setting [5]), 0.0065 ± 0.0016 % · min^−1; in assay [2] (setting [6]), 0.0046 ± 0.0011 % · min^−1. Moreover, the rel. efficiency is reported as 6.3 × 10^−5 in assay [2] (setting [3]), 1.4 × 10^−6 in assay [2] (setting [4]), 2.0 × 10^−6 in assay [2] (setting [5]) and 4.9 × 10^−6 in assay [2] (setting [6]).
Turning to `Cc1cccc(C2CC(O)C(CO)O2)c1` (stereo not drawn) [dH], the “fidelity (efficiency of correct T analog:A pair divided by efficiency of the most efficient mismatch)” value in assay [1] (varied-size template nucleoside mimics, insertion of dATP vs mismatch) is reported as 45.
